Reference: ChEMBL document CHEMBL5576126, “Discovery of Novel, Selective, and Nonbasic Agonists for the Kappa-Opioid Receptor Determined by Salvinorin A-Based Virtual Screening” (J Med Chem, 2024)
The source made the active and inactive calls. The calls are words filed in the database; no cut-off is given here.

Key:
[1] = biological target: Kappa-type opioid receptor (Homo sapiens) (UniProt P41145); assay: Potency index, ratio of SalA-VS-07 Ki to test compound Ki for Binding affinity to human Kappa-opioid receptor expressed in CHO cell membrane assessed as inhibition of [3H]-U69593 binding to KOR; assay type: cell membranes; settings: filed as agonist
Chain of Kappa-type opioid receptor (Homo sapiens) (P41145 whole entry, the tested form may be a part): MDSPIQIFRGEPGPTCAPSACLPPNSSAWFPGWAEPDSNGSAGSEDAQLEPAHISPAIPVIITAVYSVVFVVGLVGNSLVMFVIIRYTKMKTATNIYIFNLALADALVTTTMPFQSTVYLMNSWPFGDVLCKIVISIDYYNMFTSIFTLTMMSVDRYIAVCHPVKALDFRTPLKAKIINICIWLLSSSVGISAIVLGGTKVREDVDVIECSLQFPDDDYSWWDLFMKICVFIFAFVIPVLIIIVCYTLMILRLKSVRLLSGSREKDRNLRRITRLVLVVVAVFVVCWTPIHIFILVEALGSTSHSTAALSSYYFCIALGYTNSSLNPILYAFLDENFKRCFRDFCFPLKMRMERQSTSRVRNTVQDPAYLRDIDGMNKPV

[2] = biological target: Delta-type opioid receptor (Homo sapiens) (UniProt P41143); assay: Binding affinity to human Delta-opioid receptor expressed in CHO cell membrane assessed as inhibition of [3H]DPDPE binding to DOR at 10 uM incubated for 60 mins by radioligand binding assay; assay type: cell membranes
Chain of Delta-type opioid receptor (Homo sapiens) (P41143 whole entry): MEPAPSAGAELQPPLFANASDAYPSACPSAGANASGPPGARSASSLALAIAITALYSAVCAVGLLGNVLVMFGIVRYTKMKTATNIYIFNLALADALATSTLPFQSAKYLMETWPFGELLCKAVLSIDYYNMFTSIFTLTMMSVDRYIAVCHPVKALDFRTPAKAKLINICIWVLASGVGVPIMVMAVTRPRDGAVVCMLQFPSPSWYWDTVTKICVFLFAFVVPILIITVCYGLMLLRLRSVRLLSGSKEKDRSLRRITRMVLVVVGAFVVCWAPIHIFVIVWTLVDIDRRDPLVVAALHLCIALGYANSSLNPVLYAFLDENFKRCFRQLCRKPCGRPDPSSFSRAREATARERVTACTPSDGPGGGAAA

[3] = biological target: Kappa-type opioid receptor (Homo sapiens) (UniProt P41145); assay: Binding affinity to human Kappa-opioid receptor expressed in CHO cell membrane assessed as inhibition of [3H]-U69593 binding to KOR incubated for 60 mins by radioligand binding assay; assay type: cell membranes
[4] = biological target: Kappa-type opioid receptor (Homo sapiens) (UniProt P41145); assay: Agonist activity at human Kappa-opioid receptor expressed in human U2OS cells co-expressing enzyme acceptor tagged beta-arrestin2 fusion protein assessed as increase in beta-arrestin2 recruitment at 10 uM incubated for 180 mins by DiscoverX pathHunter express beta-arrestin2 assay; assay type: functional, cell-based
[5] = biological target: Kappa-type opioid receptor (Homo sapiens) (UniProt P41145); assay: Agonist activity at human Kappa-opioid receptor expressed in CHO cell membrane assessed as induction of [35S]GTPgammaS binding by measuring G protein activation incubated for 60 mins by liquid scintillation counting assay; assay type: functional, cell membranes

Row | Structure (SMILES) | Ratio Ki [1] | Activity [2] | Activity ([3]; filed as agonist) | Activity [4] | Activity [5] | Activity ([3]; filed as partial agonist)
1 | Cc1cc2n(n1)C1(CCN(C(=O)c3cccc(F)c3)CC1)CC(=O)N2CC1CC1 | 6 | inactive | Dose-Dependent Effect | inactive | – | –
2 | Cc1cc2n(n1)C1(CCN(C(=O)c3ccncc3)CC1)CC(=O)N2CC1CC1 | – | – | – | – | inactive | –
3 | Cc1cc2n(n1)C1(CCN(C(=O)c3ccc(Cl)cc3)CC1)CC(=O)N2CC1CC1 | – | inactive | – | inactive | – | Dose-Dependent Effect
4 | CCO[C@@]12Cc3c([nH]c4ccccc34)[C@]3(C)Oc4c(O)ccc5c4[C@@]31CCN(CC1CC1)C2C5 | – | Active | – | – | – | –
